From patent US20080171766A1, “Novel Method” (SMITHKLINE BEECHAM CORPORATION, priority 2005, published 2008)
In brackets after ≈: the same amount, converted by molar mass.

Assays:
[1] = system: S. aureus MRSA&Mup^r (methicillin resistant & mupirocin resistant Staphylococcus aureus); test: MIC by broth microdilution, MRSA&Mup^r; assay type: cell-based; settings: S. aureus MRSA&Mup^r (14 isolates); not all isolates tested against fusidic acid
Procedure: (§1) Whole-cell antimicrobial activity was determined by broth microdilution. Test compounds were dissolved in DMSO and diluted 1:10 in water to produce a 64 mcg/ml stock solution. Using a 96 well microtitre plate, a Microlab AT Plus 2 (Hamilton Co., Reno, Nev.) serially diluted 50 ul of the stock solution into an appropriate broth medium. Staphylococcal isolates were tested using cation adjusted Mueller Hinton broth. For S. pneumonaie testing, the Mueller Hinton broth was supplemented with 5% lysed horse blood and H. influenzae was tested with Haemophilus Test Medium. After the compounds were diluted, a 50 ul aliquot of the test isolate (˜1×10^6 cfu/ml) prepared in normal saline was added to each well of the microtitre plate. The final test concentrations ranged from 0.016-16 ug/mL. Inoculated plates were incubated at 35 °C in ambient air for 18 to 24 hours. The minimum inhibitory concentration (MIC) was determined as the lowest concentration of compound that inhibited visible growth.

[2] = system: S. aureus Macrolide^r (macrolide resistant); test: MIC by broth microdilution, macrolide resistant S. aureus; assay type: cell-based, Staphylococcus aureus; settings: S. aureus Macrolide^r (69 isolates); not all isolates tested against fusidic acid
Procedure: as §1

[3] = system: S. aureus Fusidic acid^r (fusidic acid resistant); test: MIC by broth microdilution, fusidic acid resistant S. aureus; assay type: cell-based, Staphylococcus aureus; settings: S. aureus Fusidic acid^r (6 isolates)
Procedure: as §1

[4] = system: S. aureus MRSA (methicillin resistant Staphylococcus aureus); test: MIC by broth microdilution, MRSA; assay type: cell-based; settings: S. aureus MRSA (61 isolates); not all isolates tested against fusidic acid
Procedure: as §1

[5] = system: H. influenzae BLNAR (beta lactamase negative ampicillin resistant); test: MIC by broth microdilution, H. influenzae BLNAR; assay type: cell-based; settings: H. influenzae (5 isolates) BLNAR; Compound A n = 4
Procedure: as §1

[6] = system: S. aureus Linezolid resistant; test: MIC by broth microdilution, linezolid resistant S. aureus; assay type: cell-based, Staphylococcus aureus; settings: S. aureus (3 isolates) Linezolid resistant
Procedure: as §1

[7] = system: S. aureus VISA (vancomycin intermediate Staphylococcus aureus); test: MIC by broth microdilution, VISA; assay type: cell-based
Procedure: as §1

[8] = system: H. influenzae ClarR (clarithromycin resistant); test: MIC by broth microdilution, H. influenzae ClarR; assay type: cell-based; settings: H. influenzae (5 isolates) ClarR; Compound A n = 3
Procedure: as §1

[9] = system: S. aureus Mupirocin^r (mupirocin resistant); test: MIC by broth microdilution, mupirocin resistant S. aureus; assay type: cell-based, Staphylococcus aureus; settings: S. aureus Mupirocin^r (32 isolates); not all isolates tested against fusidic acid
Procedure: as §1

[10] = S. aureus VISA (6 isolates), first part of table
[11] = S. aureus (4 isolates) VISA (vanc. MIC 4), second part of table

Row | SMILES | MIC Range [5] | MIC Range [6] | MIC Range [7, 11] | MIC Range [8] | MIC Range [1] | MIC Range [2] | MIC Range [3] | MIC Range [4] | MIC Range [7, 10] | MIC Range [9]
1 | CC(=O)O[C@H]1C[C@@]2(C)[C@@H](C[C@@H](O)[C@H]3[C@@]4(C)CC[C@@H](O)[C@@H](C)[C@@H]4CC[C@@]32C)/C1=C(\CCC=C(C)C)C(=O)O [Fusidic acid] | – | – | – | – | 0.12 to 0.5 µg/mL | 0.12 to 1 µg/mL | >16 µg/mL | 0.12 to 1 µg/mL | – | –
2 | CC[C@H]1OC(=O)[C@H](C)[C@@H](O[C@H]2C[C@@](C)(OC)[C@@H](O)[C@H](C)O2)[C@H](C)[C@@H](O[C@@H]2O[C@H](C)C[C@H](N(C)C)[C@H]2O)[C@](C)(O)C[C@@H](C)CN(C)[C@H](C)[C@@H](O)[C@]1(C)O [Azithromycin] | 1 to 2 µg/mL | 0.5 µg/mL (≈ 0.668 µM) | – | – | – | – | – | – | – | –
3 | C/C(=C\C(=O)OCCCCCCCCC(=O)O)C[C@@H]1OC[C@H](C[C@@H]2O[C@H]2[C@@H](C)[C@H](C)O)[C@@H](O)[C@H]1O [Mupirocin] | – | – | – | – | – | – | – | – | <1 µg/mL | –
4 | CC1(C)S[C@@H]2[C@H](NC(=O)[C@H](N)c3ccc(O)cc3)C(=O)N2[C@H]1C(=O)O [Amoxicillin] | 4 to 16 µg/mL | >32 µg/mL | 8 to 32 µg/mL | – | – | – | – | – | – | –
5 | CO/N=C(\C(=O)N[C@@H]1C(=O)N2C(C(=O)O)=C(COC(N)=O)CS[C@H]12)c1ccco1 [Cefuroxime] | 8 to 16 µg/mL | >16 µg/mL | >16 µg/mL | 0.5 to 1 µg/mL | – | – | – | – | – | –
6 | C=C[C@]1(C)C[C@@H](OC(=O)CSC2CC3CCC(C2)N3C)[C@]2(C)C(C)CC[C@]3(CCC(=O)[C@H]32)[C@@H](C)[C@@H]1O (stereo partly drawn) [Compound A, mutilin 14-(exo-8-methyl-8azabicyclo[3.2.1]oct-3-ylsulfanyl)-acetate] | 2 to 4 µg/mL | 1 to 2 µg/mL | 0.06 to 1 µg/mL | 0.12 to 0.25 µg/mL | <0.016 to 0.12 µg/mL | 0.03 to 0.5 µg/mL | <0.016 to 0.03 µg/mL | <0.016 to 0.5 µg/mL | <0.06 to 1 µg/mL | <0.016 to 0.5 µg/mL

More lines, main results first:

Row | MIC Range [5] | MIC Range [6] | MIC Range [7, 11] | MIC Range [8] | SMILES | MIC Range [1] | MIC Range [2] | MIC Range [3] | MIC Range [4] | MIC Range [7, 10] | MIC Range [9]
7 | 1 µg/mL (≈ 1.23 µM) | 0.03 to 0.06 µg/mL | – | – | CC[C@H]1OC(=O)[C@H](C)C(=O)[C@H](C)[C@@H](O[C@@H]2O[C@H](C)C[C@H](N(C)C)[C@H]2O)[C@](C)(OC)C[C@@H](C)C(=O)[C@H](C)[C@H]2N(CCCCn3cnc(-c4cccnc4)c3)C(=O)O[C@]12C [Telithromycin] | – | – | – | – | – | –
8 | <0.016 µg/mL | 16 µg/mL (≈ 44.3 µM) | 8 to 64 µg/mL | <0.016 µg/mL | C[C@H]1COc2c(N3CCN(C)CC3)c(F)cc3c(=O)c(C(=O)O)cn1c23 [Levofloxacin] | – | – | – | – | – | –
